For data set [1], the system named is Mouse P388 leukemia cells. Nature of the data set: Cytotoxicity Testing: 50% growth-inhibiting concentration, MTT method. The settings on record: read-out: in vitro IC50 (50% growth-inhibiting concentration). In kind it is cell-based. Here is the method:
Mouse P388 leukemia cells were used as cancer cells for this test. The cancer cells were incubated in RPMI-1640 medium containing 5 μM 2-mercaptoethanol and 10% fetal calf serum. More specifically, the cancer cells were seeded in a 96-well microplate in an amount of 1×10^4cell/50 μl/well, 25 μl/well of an aqueous solution of the test compound mentioned below (4 μg/ml) were added to each well, and the cells were incubated therein for 2 days at 37° C. After the incubation, the number of the living cells was counted using the MTT method and a dose-reaction curve was formed from the counted data. Based on the curve, the 50% growth-inhibiting concentration (IC50) of the test compound was calculated. As a comparative compound, Combretastatin A-4 was used.
(In general: Tetrazolium dyes change colour on reduction, which living cells bring about.)

Data set [2] deals with Colon 26. Nature of the data set: Evaluation of Antitumor Activity: Colon 26 inoculated sc into CD2F1 mice. The settings on record: tumor volume 21 days after the day of administration. Format: in vivo. The method, then: Colon 26 was inoculated sc into CD2F1 mice. After a week, the size of the tumor was measured and the volume of the tumor was calculated. Mice were selected on the basis of the volume of the tumor and administration of drug was begun. Twenty-one days after the day of administration, the size of the tumor was measured and the volume of the tumor was calculated. The inhibition ratio of growth of tumor (I.R.) was calculated as shown below. I.R.(%)={1-(Average Tumor Volume of Treated Mice)/(Average Tumor Volume of Control Mice)}×100

Data set [3] in a line: Solubility in phosphate buffer (pH 7.0), HPLC of supernatant. Format: physicochemical. Here is the method: An excess amount of each sample was dissolved in 0.1 ml of phosphate buffer (PH 7.0). The mixture was sonicated and centrifuged. The supernatant was subjected to HPLC and the solubility was measured.
The mark [4] stands for this setting: 48 h, mouse P388 leukemia cells, 2 days at 37° C., MTT method.
Where [5] appears, read: aqueous buffer, pH 7.0, read-out: Solubility in Phosphate Buffer (PH 7.0).
Where [6] appears, read: 40 mg/day, once a day on day 1, day 5 and day 7, perorally.
The mark [7] stands for this setting: 40 mg/day, once a day on day 1, day 5 and day 7, intravenously.

Consider 7 compounds from US5731353A, “Stilbene derivatives and pharmaceutical compositions containing them” (Ajinomoto Co., Inc., priority 1993, dated 1998).

Values after ≈ are worked out from the molar mass of the structure shown. Like-named read-outs stand apart in the source and are kept apart here.

On to `COc1cc(/C(C#N)=C\c2ccc(Cl)c(N)c2)cc(OC)c1OC` [(E)-3-(3-amino-4-chlorophenyl)-2-(3,4,5-trimethoxyphenyl)-prop-2-ene-nitrile], for which the IC50 in data set [1] (setting [4]) is 1.8 ng/mL (≈ 0.00522 µM). Moreover, the “in vivo I.R. (inhibition ratio of growth of tumor)” value in data set [2] (80 mg/day, once a day on day 1, day 5 and day 7, perorally) is listed as 23.7%.
For the compound `COc1ccc(/C=C(/C#N)c2cc(OC)c(OC)c(OC)c2)cc1N` [(E)-3-(3-amino-4-methoxyphenyl)-2-(3,4,5-trimethoxyphenyl)-prop-2-ene-nitrile], the IC50 in data set [1] (setting [4]) came to 0.2 ng/mL (≈ 0.000588 µM). Moreover, the “in vivo I.R. (inhibition ratio of growth of tumor)” value in data set [2] (10 mg/day, once a day from day 1 to day 10, intravenously) is recorded as 83.4%. For the same compound, the solubility (commonly the concentration that dissolves in the medium under given conditions) in data set [3] (setting [5]) was found to be 1700 µg/mL (≈ 4990 µM).
Regarding `COc1cc(/C(C#N)=C\c2ccc(C)c(N)c2)cc(OC)c1OC` [(E)-3-(3-amino-4-methylphenyl)-2-(3,4,5-trimethoxyphenyl)-prop-2-ene-nitrile], in data set [1] (setting [4]), the IC50 came out at 2 ng/mL (≈ 0.00617 µM). The “in vivo I.R. (inhibition ratio of growth of tumor)” value in data set [2] (setting [6]) came to 41.0%.
Regarding `COc1ccc(/C=C\c2cc(OC)c(OC)c(OC)c2)cc1N` [(Z)-1-(3-Amino-4-methoxyphenyl)-2-(3,4,5-trimethoxyphenyl)ethene], in data set [1] (setting [4]), the IC50 came out at 0.2 ng/mL (≈ 0.000634 µM). For the same compound, the “in vivo I.R. (inhibition ratio of growth of tumor)” value in data set [2] (setting [7]) is 69.5%. The solubility in data set [3] (setting [5]) is 34000 µg/mL (≈ 108000 µM).
On to `COc1cc(/C=C\c2ccc(Cl)c(N)c2)cc(OC)c1OC` [(Z)-1-(3-amino-4-chlorophenyl)-2-(3,4,5-trimethoxyphenyl)ethene], for which the IC50 in data set [1] (Mus musculus, P388, 48 h) stood at 20 ng/mL (≈ 0.0625 µM).
Turning to `COc1cc(/C=C\c2ccc(C)c(N)c2)cc(OC)c1OC` [(Z)-1-(3-amino-4-methylphenyl)-2-(3,4,5-trimethoxyphenyl)ethene], the IC50 in data set [1] (Mus musculus, P388, 48 h) is 3.5 ng/mL (≈ 0.0117 µM). Besides, the “in vivo I.R. (inhibition ratio of growth of tumor)” value in data set [2] (setting [7]) was determined as 61.6%.
For the compound `COc1ccc(/C=C\c2cc(OC)c(OC)c(OC)c2)cc1O` [Combretastatin A-4, reference compound], the IC50 in data set [1] (setting [4]) was 0.2 ng/mL (≈ 0.000632 µM). Further, the “in vivo I.R. (inhibition ratio of growth of tumor)” value in data set [2] (setting [6]) was found to be 4.6%. The same compound displayed a solubility in data set [3] (pH 7, aqueous buffer) of under 100 µg/mL.
